According to patent US20250145665A1, “MACROCYCLIC PEPTIDES USEFUL AS MODULATORS OF TNF ALPHA” (Bristol-Myers Squibb Company, priority 2023, published 2025):
Starred links: 1 amine or outer side, 2 acyl side, 3 side chain; linkers in the order of their positions; H or OH if unused. Positions of bridges follow the written chain, without caps; N, C: chain ends. Non-standard residues stand in square brackets, D forms with d. Residues, ends and D or L forms follow the SMILES beside them. *: point of attachment. Bip(4'-NHCO-C6H4-4-CH2COOH) = N[C@@H](Cc1ccc(-c2ccc(NC(=O)c3ccc(CC(=O)O)cc3)cc2)cc1)C(=O)O; X43 = O=C(O)[C@@H]1CCC[C@H](C(=O)Nc2ccc(-c3ccc(C[C@H](N[*:1])C(=O)[*:2])cc3)cc2)C1; X5 = Cn1nc(C(=O)Nc2ccc(-c3ccc(C[C@H](N[*:1])C(=O)[*:2])cc3)cc2)c2ccccc21; Bip(4'-NH) = O=C([C@H](Cc1ccc(-c2ccc(N[*:3])cc2)cc1)N[*:1])[*:2]; dArg(ω-(3-HO-benzyl)) = N=C(NCCC[C@@H](N)C(=O)O)NCc1cccc(O)c1; Bip(4'-COOH) = N[C@@H](Cc1ccc(-c2ccc(C(=O)O)cc2)cc1)C(=O)O; Bip(4'-NHAc) = CC(=O)Nc1ccc(-c2ccc(C[C@H](N)C(=O)O)cc2)cc1; Ala(imidazol-2-yl) = N[C@@H](Cc1ncc[nH]1)C(=O)O; Ala(morpholin-4-yl) = N[C@@H](CN1CCOCC1)C(=O)O; Benzoyl(4-OCH2COOH) = O=C(O)COc1ccc(C(=O)*)cc1; Bip = N[C@@H](Cc1ccc(-c2ccccc2)cc1)C(=O)O; 2Pal = N[C@@H](Cc1ccccn1)C(=O)O; Cha = N[C@@H](CC1CCCCC1)C(=O)O; Chg = N[C@H](C(=O)O)C1CCCCC1; Sar = CNCC(=O)O

Target: TNFα (Homo sapiens, UniProt P01375)
Assay: TNF-Induced HEK-Blue Assay
Assay type: cell-based
Settings: HEK-Blue-CD40L cells, NF-kB-driven secreted alkaline phosphatase reporter; TNFα 0.5 ng/ml; 18 h; read-out: TNF induced HEK-Blue assay IC50 value

TNFα, sequence (P01375 77-233 limits assumed): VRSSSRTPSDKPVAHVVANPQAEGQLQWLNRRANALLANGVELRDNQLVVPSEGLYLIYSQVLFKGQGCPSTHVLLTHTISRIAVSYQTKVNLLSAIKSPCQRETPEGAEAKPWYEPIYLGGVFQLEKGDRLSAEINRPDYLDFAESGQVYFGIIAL

| Compound | IC50 [nM] |
| --- | --- |
| CC[C@H](C)[C@@H]1NC(=O)[C@@H](CCCNC(=N)N)NC(=O)[C@H](CC(=O)O)NC(=O)[C@H](Cc2cnc[nH]2)NC(=O)CN(C)C(=O)[C@H](Cc2ccc(-c3ccc(NC(=O)c4nn(C)c5ccccc45)cc3)cc2)NC(=O)[C@H](Cc2ccc(-c3ccccc3)cc2)NC(=O)[C@H](CC2CCCCC2)NC(=O)CSC[C@@H](C(=O)NCC(N)=O)NC(=O)[C@H](CC(C)C)NC(=O)[C@H](Cc2cnc[nH]2)NC(=O)[C@H](C(C)C)NC(=O)[C@@H]2CCCN2C1=O [Example 341] ({CH2CO}-[Cha][Bip][X5][Sar]HD[dR]IPVHLCG-NH2; thioether N-13) | < 50 |
| CC(C)C[C@@H]1NC(=O)[C@H](Cc2ccc(O)cc2)NC(=O)[C@H](C2CCCCC2)NC(=O)[C@@H]2CCCN2C(=O)[C@H](C(C)C)NC(=O)[C@@H](CCCNC(=N)N)NC(=O)[C@H](CC(=O)O)NC(=O)[C@@H]2CCCN2C(=O)CN(C)C(=O)[C@H](Cc2ccc(-c3ccccc3)cc2)NC(=O)[C@H](Cc2ccc(-c3ccccc3)cc2)NC(=O)[C@H](CN2CCOCC2)NC(=O)CSC[C@@H](C(=O)NCC(N)=O)NC1=O [Example 209] ({CH2CO}-[Ala(morpholin-4-yl)][Bip][Bip][Sar]PD[dR]VP[Chg]YLCG-NH2; thioether N-13) | 200 to 2000 |
| CC[C@H](C)[C@@H]1NC(=O)[C@@H](CCCNC(=N)N)NC(=O)[C@H](CC(=O)O)NC(=O)[C@H](Cc2cnc[nH]2)NC(=O)CN(C)C(=O)[C@H](Cc2ccc(-c3ccc(NC(=O)[C@H]4CCC[C@@H](C(=O)O)C4)cc3)cc2)NC(=O)[C@H](Cc2ccc(-c3ccccc3)cc2)NC(=O)[C@H](CC2CCCCC2)NC(=O)CSC[C@@H](C(=O)NCC(N)=O)NC(=O)[C@H](CC(C)C)NC(=O)[C@H](Cc2cnc[nH]2)NC(=O)[C@H](C(C)C)NC(=O)[C@@H]2CCCN2C1=O [Example 446] ({CH2CO}-[Cha][Bip][X43][Sar]HD[dR]IPVHLCG-NH2; thioether N-13) | 50 to 200 |
| CC(C)C[C@@H]1NC(=O)[C@H](CCCNC(=N)N)NC(=O)[C@H](C(C)C)NC(=O)CN(C)C(=O)[C@H](C(C)C)NC(=O)[C@H](CCCNC(=N)N)NC(=O)[C@H](CC(=O)O)NC(=O)[C@@H]2CCCN2C(=O)CN(C)C(=O)[C@H](Cc2ccc(-c3ccccc3)cc2)NC(=O)[C@H](Cc2ccc(-c3ccccc3)cc2)NC(=O)[C@H](Cc2ccccc2)NC(=O)CSC[C@@H](C(=O)NCC(N)=O)NC1=O [Example 16] ({CH2CO}-F[Bip][Bip][Sar]PDRV[Sar]VRLCG-NH2; thioether N-13) | 200 to 2000 |

Second part, the compound after the results:

| IC50 [nM] | Compound |
| --- | --- |
| 50 to 200 | CC(=O)Nc1ccc(-c2ccc(C[C@@H]3NC(=O)[C@H](Cc4ccc(-c5ccccc5)cc4)NC(=O)[C@H](CN4CCOCC4)NC(=O)CSC[C@@H](C(=O)NCC(N)=O)NC(=O)[C@H](CC(C)C)NC(=O)[C@H](Cc4ccccc4)NC(=O)[C@H](C(C)C)NC(=O)[C@@H]4CCCN4C(=O)[C@H](C(C)C)NC(=O)[C@@H](CCCNC(=N)N)NC(=O)[C@H](CC(=O)O)NC(=O)[C@H](Cc4ccccn4)NC(=O)CN(C)C3=O)cc2)cc1 [Example 227] ({CH2CO}-[Ala(morpholin-4-yl)][Bip][Bip(4'-NHAc)][Sar][2Pal]D[dR]VPVFLCG-NH2; thioether N-13) |
| < 50 | CC(C)C[C@@H]1NC(=O)[C@H](Cc2ncc[nH]2)NC(=O)[C@H](C(C)C)NC(=O)[C@@H]2CCCN2C(=O)[C@H](C(C)C)NC(=O)[C@@H](CCCNC(=N)NCc2cccc(O)c2)NC(=O)[C@H](CC(=O)O)NC(=O)[C@H](Cc2ccccn2)NC(=O)CN(C)C(=O)[C@H](Cc2ccc(-c3ccc(NC(=O)c4ccc(CC(=O)O)cc4)cc3)cc2)NC(=O)[C@H](Cc2ccc(-c3ccc(C(=O)O)cc3)cc2)NC(=O)[C@H](CC2CCCCC2)NC(=O)CSC[C@@H](C(=O)NCC(N)=O)NC1=O [Example 554] ({CH2CO}-[Cha][Bip(4'-COOH)][Bip(4'-NHCO-C6H4-4-CH2COOH)][Sar][2Pal]D[dArg(ω-(3-HO-benzyl))]VPV[Ala(imidazol-2-yl)]LCG-NH2; thioether N-13) |
| < 50 | CC(C)C[C@@H]1NC(=O)[C@H](Cc2cnc[nH]2)NC(=O)[C@H](C(C)C)NC(=O)[C@@H]2CCCN2C(=O)[C@H](C(C)C)NC(=O)[C@@H](CCCNC(=N)N)NC(=O)[C@H](CC(=O)O)NC(=O)[C@H](Cc2cnc[nH]2)NC(=O)CN(C)C(=O)[C@H](Cc2ccc(-c3ccc(NC(=O)c4ccc(OCC(=O)O)cc4)cc3)cc2)NC(=O)[C@H](Cc2ccc(-c3ccccc3)cc2)NC(=O)[C@H](CN2CCOCC2)NC(=O)CSC[C@@H](C(=O)NCC(N)=O)NC1=O [Example 495] ({CH2CO}-[Ala(morpholin-4-yl)][Bip][Bip(4'-NH)](Benzoyl(4-OCH2COOH))[Sar]HD[dR]VPVHLCG-NH2; thioether N-13) |
| < 50 | CC(=O)Nc1ccc(-c2ccc(C[C@@H]3NC(=O)[C@H](Cc4ccc(-c5ccccc5)cc4)NC(=O)[C@H](CN4CCOCC4)NC(=O)CSC[C@@H](C(=O)NCC(N)=O)NC(=O)[C@H](CC(C)C)NC(=O)[C@H](Cc4ccccn4)NC(=O)[C@H](C(C)C)NC(=O)[C@@H]4CCCN4C(=O)[C@H](C(C)C)NC(=O)[C@@H](CCCNC(=N)N)NC(=O)[C@H](CC(=O)O)NC(=O)[C@H](Cc4ccccc4)NC(=O)CN(C)C3=O)cc2)cc1 [Example 228] ({CH2CO}-[Ala(morpholin-4-yl)][Bip][Bip(4'-NHAc)][Sar]FD[dR]VPV[2Pal]LCG-NH2; thioether N-13) |
